Laboratory results published in patent US6376670B1, “Quinoline-indole antimicrobial agents, uses and compositions related thereto” (Sepracor Inc., priority 1997, dated 2002).
Like-named read-outs stand apart in the source and are kept apart here.

Tests used:
Test in all cases: Determination of MIC values (BHI broth, 96 well microtiter plate)
Format in all cases: cell-based
[1] = test system: Streptococcus pneumoniae; conditions: Streptococcus pneumoniae, BHI broth, read-out: MIC S. pneu
Procedure, shortened: (§1)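 BHI broth microdilution; final compound 25, 12.5, 6.25, 3.125, 1.56, 0.78, 0.39, 0 µg/mL (1% DMSO). Inoculum 10^5–10^6 cells/mL; 37° C, ~7-10% CO2, ~16 h. MIC = lowest concentration, no observable growth.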

[2] = test system: methicillin-resistant Staphylococcus aureus (MRSA); conditions: MRSA, BHI broth; for MIC: Staphylococcus aureus, read-out: MIC MRSA
Procedure, shortened: as §1

[3] = test system: vancomycin-resistant Enterococcus spp. (VRE); conditions: Enterococcus, VRE, BHI broth, read-out: MIC VREF
Procedure, shortened: as §1

[4] = 37° C., overnight (about 16 hours)
[5] = 16 h, 37° C., overnight (about 16 hours)

SMILES | MIC [1, 4] | MIC [2, 5] | MIC [3, 5] | MIC ([1]; S. pneu, overnight 37° C.) | MIC MRSA ([2]; overnight 37° C.) | MIC ([3]; VREF, overnight 37° C.) | MIC ([2]; overnight 37° C.)
Clc1ccc2nc(-c3c[nH]c4ccccc34)ccc2c1 [Example 164] | < 7 µg/mL | < 7 µg/mL | < 5 µg/mL |  |  |  | 
Brc1ccc2[nH]cc(-c3ccc4ccccc4n3)c2c1 [Example 165] | < 7 µg/mL | < 7 µg/mL | < 7 µg/mL |  |  |  | 
Clc1ccc2[nH]cc(-c3ccc4ccccc4n3)c2c1 [Example 168] | < 7 µg/mL | < 7 µg/mL | > 25 µg/mL |  |  |  | 
Clc1ccc2nc(-c3c[nH]c4ccc(Cl)cc34)ccc2c1 [Example 169] | < 7 µg/mL | < 7 µg/mL | > 25 µg/mL |  |  |  | 
COc1ccc(NC(=O)c2cc(-c3c[nH]c4ccc(Br)cc34)nc3ccc(C(F)(F)F)cc23)cc1 [Example 170] | < 7 µg/mL | < 7 µg/mL | > 25 µg/mL |  |  |  | 
O=C(Nc1ccc(O)cc1)c1cc(-c2c[nH]c3ccc(Br)cc23)nc2ccc(C(F)(F)F)cc12 [Example 171] | < 7 µg/mL | < 7 µg/mL | < 7 µg/mL |  |  |  | 
O=C(NCc1nc2ccccc2[nH]1)c1cc(-c2c[nH]c3ccc(Br)cc23)nc2ccc(C(F)(F)F)cc12 [Example 172] | < 7 µg/mL | < 7 µg/mL | > 25 µg/mL |  |  |  | 
O=C(NCc1nc2ccccc2[nH]1)c1cc(-c2c[nH]c3ccc(Br)cc23)nc2ccc(I)cc12 [Example 173] | < 7 µg/mL | < 7 µg/mL | > 25 µg/mL |  |  |  | 
COc1ccc(NC(=O)c2cc(-c3c[nH]c4ccc(Br)cc34)nc3ccc(I)cc23)cc1 [Example 174] | < 25 µg/mL | < 7 µg/mL | > 25 µg/mL |  |  |  | 
O=C(Nc1ccc(O)cc1)c1cc(-c2c[nH]c3ccc(Br)cc23)nc2ccc(I)cc12 [Example 175] | < 7 µg/mL | < 7 µg/mL | < 25 µg/mL |  |  |  | 
Fc1ccc2[nH]cc(-c3ccc4ccccc4n3)c2c1 [Example 181] | < 7 µg/mL | < 7 µg/mL | < 25 µg/mL |  |  |  | 
Fc1ccc2c(-c3ccc4ccccc4n3)c[nH]c2c1 [Example 183] | > 25 µg/mL | < 25 µg/mL | > 25 µg/mL |  |  |  | 
c1ccc(COc2ccc3[nH]cc(-c4ccc5ccccc5n4)c3c2)cc1 [Example 184] | < 7 µg/mL | > 25 µg/mL | > 25 µg/mL |  |  |  | 
Fc1ccc2[nH]cc(-c3ccc4cc(Cl)ccc4n3)c2c1 [Example 191] | < 7 µg/mL | < 7 µg/mL | < 25 µg/mL |  |  |  | 
Clc1ccc2nc(-c3c[nH]c4ccc(OCc5ccccc5)cc34)ccc2c1 [Example 194] | < 7 µg/mL | < 7 µg/mL | > 25 µg/mL |  |  |  | 
COc1ccc2[nH]cc(-c3ccc4cc(Cl)ccc4n3)c2c1 [Example 195] | > 25 µg/mL | > 25 µg/mL | > 25 µg/mL |  |  |  | 

Further lines, results first:

MIC [1, 4] | MIC [2, 5] | MIC [3, 5] | MIC ([1]; S. pneu, overnight 37° C.) | MIC MRSA ([2]; overnight 37° C.) | MIC ([3]; VREF, overnight 37° C.) | MIC ([2]; overnight 37° C.) | SMILES
< 25 µg/mL | < 7 µg/mL | > 25 µg/mL |  |  |  |  | O=[N+]([O-])c1ccc2[nH]cc(-c3ccc4cc(Cl)ccc4n3)c2c1 [Example 196]
> 25 µg/mL | > 25 µg/mL | > 25 µg/mL |  |  |  |  | Cc1cccc2c(-c3ccc4cc(Cl)ccc4n3)c[nH]c12 [Example 199]
 |  |  | > 25 µg/mL | < 7 µg/mL | > 25 µg/mL |  | N#Cc1ccc2[nH]cc(-c3ccc4cc(Cl)ccc4n3)c2c1 [Example 200]
 |  |  | < 7 µg/mL |  | < 25 µg/mL | < 7 µg/mL | Clc1ccc2nc(-c3c[nH]c4cccc(Cl)c34)ccc2c1 [Example 201]
 |  |  | < 7 µg/mL |  | > 25 µg/mL | < 7 µg/mL | Clc1ccc2nc(-c3c[nH]c4cc(Cl)ccc34)ccc2c1 [Example 202]
 |  |  | < 7 µg/mL |  | < 25 µg/mL | < 7 µg/mL | CC(=O)Oc1cccc2[nH]cc(-c3ccc4cc(Cl)ccc4n3)c12 [Example 204]
 |  |  | < 25 µg/mL |  | < 25 µg/mL | < 7 µg/mL | NCc1ccc(CNC(=O)c2cc(-c3c[nH]c4ccc(Br)cc34)nc3ccc(C#CCN4CCNCC4)cc23)cc1 [Example 208]
 |  |  | < 7 µg/mL |  | < 7 µg/mL | < 7 µg/mL | NCc1ccc(CNC(=O)c2cc(-c3c[nH]c4ccc(Br)cc34)nc3cc(Cl)cc(Cl)c23)cc1 [Example 209]
 |  |  | > 25 µg/mL |  | > 25 µg/mL | < 25 µg/mL | Cn1cc(-c2ccc3cc(Cl)ccc3n2)c2c(F)cccc21 [Example 211]
 |  |  | < 7 µg/mL |  | < 25 µg/mL | < 25 µg/mL | Cc1cccc2c(-c3ccc4cc(Cl)ccc4n3)cn(C)c12 [Example 217]
 |  |  | > 25 µg/mL |  | > 25 µg/mL | < 7 µg/mL | Cn1cc(-c2ccc3cc(Cl)ccc3n2)c2cc(C#N)ccc21 [Example 218]
 |  |  | < 25 µg/mL |  | > 25 µg/mL | > 25 µg/mL | Cn1cc(-c2ccc3cc(Cl)ccc3n2)c2ccc(Cl)cc21 [Example 219]
